Measurements published in patent US9498423B2, “Synergistic selenopeptide formulations for the protection of dermal papilla cells” (Sami Labs Limited, priority 2012, dated 2016).

Tested on: Human dermal papilla cells
Assay: UVB stress protection of dermal papilla cells, cell viability by Neutral Red Uptake staining
Type: cell-based
Settings: UVB 0.432 J/cm^2; Table 1
Protocol: Human dermal papilla cells were plated into a 96 well flat bottomed clear micro plate at a seeding density of 5000 cells per well. The 24 hour monolayer of cells was exposed to UVB dosages ranging from 0.0072 J/cm^2 to 1.0 J/cm^2 (stress signal) with or without sample (protective formulations) treatment. After exposure, the cells were incubated in a CO2 incubator for 48 hours and developed by NRU (Neutral Red Uptake) staining techniques to analyze cell viability. The absorbance due to viable cells is read at 492 nm in a micro plate reader.

Which “Protection of dermal papilla cells, UVB irradiation level 0.432 J/cm^2” value does the source give for `C[Se]CC[C@H](NC(=O)CC[C@H](N)C(=O)O)C(=O)O` [γ-L-glutamyl-L-Selenomethionine] here?
Its value is “No protection”.
